From PMC12560828, “Chemical structure drives developmental toxicity of alkyl-substituted naphthalenes in zebrafish” (Environment international, 2025)

Assays:
[1] = test system: zebrafish larvae, 120 hpf; assay: Larval photomotor response (LPR) assay after vial exposure; format: in vivo, Danio rerio; conditions: for fold_change: LPR
Protocol: (§1) When embryos were 6 hpf they were bleached in groups of 1000 or less to limit bacterial growth in sealed vials. Embryos were placed in a strainer for transfer between solutions in 500 mL containers. […] Pools of eight embryos were placed into 2 mL clear glass screw cap exposure vials with polyvinyl-faced pulp liner (Avantar Radnor, PA, United States) using a glass Pasteur pipette. Excess EM was removed, and 2 mL of fresh EM was immediately added. A total of 10 uL of 200x working stock (in DMSO) was added to each vial, then immediately capped and inverted three times to mix. […] Vials were loaded into a custom 3D printed vial holder for slow end-over-end rotation in a dark 28 °C incubator overnight. […] At 24 hpf, embryos were removed from exposure vials and singulated into 96-well plates loaded with 100 μL chemical-free EM. Each exposure vial group was maintained in plate columns. After loading into 96-well plates, embryos were assessed for 24-hour mortality. For the remainder of the exposure, plates were kept stationary at 28 °C in the dark, until 120 hpf when morphology screening and the larval photo motor response (LPR) assay were conducted, section 2.3.2 and section 2.3.3, respectively.
Each treatment group was replicated over four vials, resulting in 32 embryos per treatment, split over two replicate 96-well plates per chemical. […] Vial groups of plated larvae were tracked to assess the impact of the vial on the results. All reported concentrations were nominal water concentrations and are included in SI-T4.
The LPR assay was conducted at 120 hpf. […] Larval movement was tracked throughout minutes 6–24. Animals dead or morphologically abnormal were excluded from the analysis, and if more than 30 % of the wells in a treatment group were excluded, the treatment was removed.
Movement values were binned into 6s intervals, log normalized and used to calculate area under the curve (AUC). AUC values from the first cycle after calibration were used to calculate the LEL for each period (light and dark).

[2] = test system: early life stage zebrafish (Danio rerio) embryos; assay: Developmental toxicity morphology screen, sealed rotating vial exposure; format: in vivo; set-up: bmd, MO24 / bmd, MORT / bmd, ANY_ / bmd, AXIS / bmd, CRAN / bmd, EDEM / bmd, LTRK / bmd, MUSC / bmdL, ANY_ / bmdU, ANY_ / bmdL, AXIS / bmdU, AXIS / bmdL, CRAN / bmdU, CRAN / bmdL, EDEM / bmdU, EDEM / bmdL, LTRK / bmdU, LTRK / bmdL, MO24 / bmdU, MO24 / bmdL, MORT / bmdU, MORT: unit not given here
Protocol: as §1
Each treatment group was replicated over four vials, resulting in 32 embryos per treatment, split over two replicate 96-well plates per chemical. […] All reported concentrations were nominal water concentrations and are included in SI-T4.
At 24 hpf embryos were assessed for mortality (MO24). At 120 hpf embryos were assessed for abnormality in […] morphological endpoints: mortality (MORT), edemas (EDEM), bent axis (AXIS), touch response (TCHR), craniofacial (CRAN), muscular/cardiovascular (MUSC), lower trunk (LRTK), brain (BRAN), skin (SKIN), and notochord malformations (NC). Morphological assessments were made by a team of three to four individuals. The team was blinded to the identity, plate layout, and concentrations of the chemicals, thereby minimizing bias in morphological screening assessment. To ensure the assessments were consistent, concentration–response reproducibility of a parathion ethyl quality control plate was performed along with each experimental exposure set up. Details of all measured endpoints can be found at Developmental toxicity zebrafish phenotype atlas. […] Each endpoint was scored as a binary presence/absence and scores were compiled into an “Any effect” endpoint, the presence of abnormality in any individual endpoint.
The Any effect percent was used to calculate the BMC50, 50 % change relative to the background for each endpoint and chemical. All values were reported as the nominal exposure concentration.

[3] = period dark, round 1, conc 3.125
[4] = period dark, round 1, conc 6.25
[5] = period dark, round 1, conc 12.5
[6] = period light, round 1, conc 3.125
[7] = period light, round 1, conc 6.25
[8] = period light, round 1, conc 12.5
[9] = Fig. 2 heatmap; nominal concentration, exposure 6-24 hpf in vials, summary of all endpoints
[10] = benchmark dose; morphology endpoint ANY_ (any effect)
[11] = endpoint MORT; lower limit of benchmark dose
[12] = endpoint MORT; upper limit of benchmark dose
[13] = morphology endpoint EDEM; benchmark dose
[14] = morphology endpoint EDEM; lower limit of benchmark dose
[15] = morphology endpoint EDEM; upper limit of benchmark dose

Compound: Cc1cccc2ccccc12 [1-methylnaphthalene]
- LPR behavioral effect ([1]; 120 hpf, light/dark periods, result in words): active
- fold_change [1, 3]: -0.2838
- fold_change [1, 4]: -0.4018
- fold_change [1, 5]: -0.5302
- fold_change ([1]; period dark, round 1, conc 25): -0.8382
- fold_change ([1]; period dark, round 1, conc 50): -0.8713
- fold_change [1, 6]: 0.7433
- fold_change [1, 7]: 0.645
- fold_change [1, 8]: 0.113
- fold_change ([1]; period light, round 1, conc 25): 0.4697
- fold_change ([1]; period light, round 1, conc 50): 0.667
- morphological effects (BMC50 for any morphological endpoint) ([2]; 0-50 μM, result in words): no morphological BMC50 values

Compound: Cc1cc2ccccc2cc1C [2,3-dimethylnaphthalene]
- fold_change [1, 3]: -0.07813
- fold_change [1, 4]: -0.1051
- fold_change [1, 5]: -0.1104
- fold_change ([1]; period dark, round 1, conc 25): -0.9852
- fold_change ([1]; period dark, round 1, conc 50): -1.366
- fold_change [1, 6]: -0.3145
- fold_change [1, 7]: -0.003485
- fold_change [1, 8]: -1.16
- fold_change ([1]; period light, round 1, conc 25): -0.6826
- fold_change ([1]; period light, round 1, conc 50): -0.533
- BMC50 Any effect [2, 9]: 46.6 µM
- any effect BMD50 ([2]; SI-T5): 46.56 µM
- bmd, ANY_ [2, 10]: 46.5587

Compound: CCc1ccc2cc(CC)ccc2c1 [2,6-diethylnaphthalene]
- fold_change [1, 3]: 0.178
- fold_change [1, 4]: -0.04909
- fold_change [1, 5]: -0.5724
- fold_change ([1]; period dark, round 1, conc 25): -0.5473
- fold_change [1, 6]: -0.07519
- fold_change [1, 7]: 0.5876
- fold_change [1, 8]: 0.2476
- fold_change ([1]; period light, round 1, conc 25): 0.1223
- BMC50 AXIS (curved or bent body axis at 120 hpf) ([2]; Fig. 2; nominal concentration): 46.9 µM
- BMC50 MO24 (mortality at 24 hpf) ([2]; Fig. 2; nominal concentration): 38.1 µM
- BMC50 MORT (mortality at 120 hpf) ([2]; Fig. 2; nominal concentration): 39.2 µM
- BMC50 Any effect [2, 9]: 18.8 µM
- any effect BMD50 ([2]; SI-T5): 18.77 µM
- bmd, MO24 ([2]; benchmark dose; endpoint MO24): 38.0576
- bmd, MORT ([2]; benchmark dose; endpoint MORT): 39.1942
- bmd, ANY_ [2, 10]: 18.7673
- bmd, AXIS ([2]; benchmark dose; morphology endpoint AXIS): 46.8649

Compound: CC(C)(C)c1ccc2ccc(C(C)(C)C)cc2c1 [2,7-di-tert-butylnaphthalene]
- fold_change [1, 3]: -0.2175
- fold_change [1, 4]: -0.4542
- fold_change [1, 5]: -0.5803
- fold_change ([1]; period dark, round 1, conc 25): -1.44
- fold_change [1, 6]: 0.7527
- fold_change [1, 7]: 0.7301
- fold_change [1, 8]: 0.5841
- fold_change ([1]; period light, round 1, conc 25): 0.3464
- BMC50 EDEM (pericardial and/or yolk sac edema at 120 hpf) ([2]; Fig. 2; nominal concentration): 33.6 µM
- BMC50 MO24 (mortality at 24 hpf) ([2]; Fig. 2; nominal concentration): no MO24 BMC50
- BMC50 MORT (mortality at 120 hpf) ([2]; Fig. 2; nominal concentration): 41.3 µM
- BMC50 Any effect [2, 9]: 24.7 µM
- any effect BMD50 ([2]; SI-T5): 24.66 µM
- bmd, ANY_ [2, 10]: 24.6598
- bmd, MORT ([2]; endpoint MORT; benchmark dose): 41.3049
- bmdL, MORT [2, 11]: 34.7649
- bmdU, MORT [2, 12]: 51.9197
- bmd, EDEM [2, 13]: 33.6463
- bmdL, EDEM [2, 14]: 26.4386
- bmdU, EDEM [2, 15]: 67.8341

Compound: CCCCc1ccc2ccccc2c1 [2-butylnaphthalene]
- fold_change [1, 3]: -0.7788
- fold_change [1, 4]: -1.395
- fold_change [1, 5]: -2.279
- fold_change [1, 6]: 0.2651
- fold_change [1, 7]: -0.6707
- fold_change [1, 8]: 0.432
- BMC50 AXIS (curved or bent body axis at 120 hpf) ([2]; Fig. 2; nominal concentration): 31.7 µM
- BMC50 CRAN (craniofacial malformation at 120 hpf) ([2]; Fig. 2; nominal concentration): 32.3 µM
- BMC50 EDEM (pericardial and/or yolk sac edema at 120 hpf) ([2]; Fig. 2; nominal concentration): 37.1 µM
- BMC50 LTRK (lower trunk and/or caudal fin at 120 hpf) ([2]; Fig. 2; nominal concentration): 32.6 µM
- BMC50 MO24 (mortality at 24 hpf) ([2]; Fig. 2; nominal concentration): 45.9 µM
- BMC50 MORT (mortality at 120 hpf) ([2]; Fig. 2; nominal concentration): 29.2 µM
- BMC50 Any effect [2, 9]: 13.8 µM
- any effect BMD50 ([2]; SI-T5): 13.76 µM
- bmd, MO24 ([2]; endpoint MO24; benchmark dose): 45.9226
- bmdL, MO24 ([2]; endpoint MO24; lower limit of benchmark dose): 34.5575
- bmdU, MO24 ([2]; endpoint MO24; upper limit of benchmark dose): 71.8256
- bmd, MORT ([2]; endpoint MORT; benchmark dose): 29.2083
- bmdL, MORT [2, 11]: 24.1073
- bmdU, MORT [2, 12]: 36.5916
- bmd, ANY_ ([2]; morphology endpoint ANY_; benchmark dose): 13.7563
- bmdL, ANY_ ([2]; morphology endpoint ANY_; lower limit of benchmark dose): 11.3562
- bmdU, ANY_ ([2]; morphology endpoint ANY_; upper limit of benchmark dose): 16.7056
- bmd, AXIS ([2]; morphology endpoint AXIS; benchmark dose): 31.7332
- bmdL, AXIS ([2]; morphology endpoint AXIS; lower limit of benchmark dose): 20.8074
- bmdU, AXIS ([2]; morphology endpoint AXIS; upper limit of benchmark dose): 68.8189
- bmd, CRAN ([2]; morphology endpoint CRAN; benchmark dose): 32.2639
- bmdL, CRAN ([2]; morphology endpoint CRAN; lower limit of benchmark dose): 21.7357
- bmdU, CRAN ([2]; morphology endpoint CRAN; upper limit of benchmark dose): 64.257
- bmd, EDEM [2, 13]: 37.0933
- bmdL, EDEM [2, 14]: 25.0511
- bmdU, EDEM [2, 15]: 73.9212
- bmd, LTRK ([2]; morphology endpoint LTRK; benchmark dose): 32.6419
- bmdL, LTRK ([2]; morphology endpoint LTRK; lower limit of benchmark dose): 22.6339
- bmdU, LTRK ([2]; morphology endpoint LTRK; upper limit of benchmark dose): 59.8583

Compound: Cc1ccc2ccccc2c1 [2-methylnaphthalene]
- fold_change [1, 3]: 0.03896
- fold_change [1, 4]: -0.06284
- fold_change [1, 5]: 0.2024
- fold_change ([1]; period dark, round 1, conc 25): 0.07059
- fold_change ([1]; period dark, round 1, conc 50): -0.2156
- fold_change [1, 6]: -0.3603
- fold_change [1, 7]: -0.05115
- fold_change [1, 8]: 0.6486
- fold_change ([1]; period light, round 1, conc 25): 0.2057
- fold_change ([1]; period light, round 1, conc 50): 0.2253
- morphological effects (BMC50 for any morphological endpoint) ([2]; 0-50 μM, result in words): no morphological BMC50 values
